≈ marks a conversion by molar mass, not a printed value. Entries after “also recorded” stand apart in the source; their conditions may differ. Read-outs that look alike come from different tables or passages of the source.
How the values were obtained:
CaPGMC359S = target: T1, CaPGMC359S (Candida albicans, UniProt A0A1D8PSA9, C359S); assay: G6PDH coupled assay for PGM, CaPGM C359S mutant; type: biochemical; details: 5 nM enzyme, no preincubation
T1 sequence (A0A1D8PSA9 1-560 C359S): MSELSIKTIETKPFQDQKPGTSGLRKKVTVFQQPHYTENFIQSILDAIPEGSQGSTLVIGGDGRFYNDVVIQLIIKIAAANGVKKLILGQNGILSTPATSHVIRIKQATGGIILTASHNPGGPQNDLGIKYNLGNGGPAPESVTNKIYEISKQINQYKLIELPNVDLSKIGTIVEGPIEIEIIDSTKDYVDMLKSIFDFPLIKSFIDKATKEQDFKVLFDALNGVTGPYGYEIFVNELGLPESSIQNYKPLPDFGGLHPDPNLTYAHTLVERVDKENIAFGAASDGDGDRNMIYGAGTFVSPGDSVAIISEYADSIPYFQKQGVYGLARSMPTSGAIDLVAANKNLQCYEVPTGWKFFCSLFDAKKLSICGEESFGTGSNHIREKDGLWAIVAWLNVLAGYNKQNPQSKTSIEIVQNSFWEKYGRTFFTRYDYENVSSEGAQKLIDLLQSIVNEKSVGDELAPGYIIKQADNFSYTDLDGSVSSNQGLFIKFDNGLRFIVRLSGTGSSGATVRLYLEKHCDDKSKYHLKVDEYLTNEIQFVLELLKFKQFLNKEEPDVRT
Description: (§1) The reaction mixture contained MOPS–NaOH (pH 7.4; 50 mM), MgSO4 (1.5 mM), NADP^+ (1 mM), G6PDH (0.01 U) from L. mesenteroides, Glc-1P (500 μM), Glc-1,6-2P (50 μM), and enzyme (5 nM). The reaction was carried out at 25 °C for 6 min in a total volume of 100 μl. Formation of NADPH was detected in real-time (every 1.5 min), measuring fluorescence signal (excitation at 360 nm; emission at 460 nm). To measure the inhibitory activity, compounds with different concentrations (3% (v/v) DMSO) were added to the reaction system. IC50 values were calculated using the product (NADPH) concentration at 6 min with 500 μM Glc-1P.

AfPGMC353∗ [1] = target: T2, AfPGMC353∗ (Aspergillus fumigatus, UniProt Q4WY53, C131S/C242S/C364S); assay: Covalent modification, intact protein mass spectrometry, AfPGMC353∗; type: binding; details: AfPGMC353∗:ISFP1 1:20; single adduct on C353
T2 construct: Full length AfPGM; 6His-GST (N, cleaved yes); made in house; host or cells: E. coli BL21 (DE3) pLysS
T2 sequence (Q4WY53 whole entry C131S/C242S/C364S): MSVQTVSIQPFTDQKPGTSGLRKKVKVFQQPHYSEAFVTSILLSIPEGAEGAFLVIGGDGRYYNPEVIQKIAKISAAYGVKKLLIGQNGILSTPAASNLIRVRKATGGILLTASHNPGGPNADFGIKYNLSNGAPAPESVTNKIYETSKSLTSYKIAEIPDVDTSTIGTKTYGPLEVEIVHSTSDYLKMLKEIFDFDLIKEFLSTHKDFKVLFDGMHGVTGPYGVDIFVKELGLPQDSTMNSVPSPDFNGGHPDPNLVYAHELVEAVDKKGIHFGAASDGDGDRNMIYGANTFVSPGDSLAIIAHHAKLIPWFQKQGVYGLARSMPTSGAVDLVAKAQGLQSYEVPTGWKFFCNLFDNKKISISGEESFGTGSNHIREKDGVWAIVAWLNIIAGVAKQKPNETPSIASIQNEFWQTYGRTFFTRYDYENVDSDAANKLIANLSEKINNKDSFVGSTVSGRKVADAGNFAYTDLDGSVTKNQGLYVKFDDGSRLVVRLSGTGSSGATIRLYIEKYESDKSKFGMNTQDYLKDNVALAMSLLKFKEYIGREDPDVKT
Description: (§2) PGM was dissolved to 20 μM in Hepes buffer (25 mM Hepes–NaOH (pH 7.5), 150 mM NaCl) and incubated with compound (protein:compound 1:20; 2% (v/v) DMSO) at 20 °C for 10 min (for AfPGM) or 4 °C overnight (for AfPGMC353∗). Excess compound molecules were removed using desalting column (CentriPure P2, Generon). PGM (20 μM) incubated with DMSO at the same condition was utilized as a control. The removal of isothiazolone adducts was carried out through the incubation with DTT (10 mM) at 20 °C for 10 min. DTT was removed using a desalting column (CentriPure P2, Generon). The ring-opened isothiazolone protein modification was confirmed using intact protein mass spectrometry.

AfPGM [2] = target: T3, AfPGM (Aspergillus fumigatus, UniProt Q4WY53); assay: AfPGM enzyme kinetics in the presence of ISFP1 (G6PDH coupled assay); type: biochemical
T3 construct: Full length AfPGM; 6His-GST (N, cleaved yes); made in house; host or cells: E. coli BL21 (DE3) pLysS
T3 sequence (Q4WY53 whole entry): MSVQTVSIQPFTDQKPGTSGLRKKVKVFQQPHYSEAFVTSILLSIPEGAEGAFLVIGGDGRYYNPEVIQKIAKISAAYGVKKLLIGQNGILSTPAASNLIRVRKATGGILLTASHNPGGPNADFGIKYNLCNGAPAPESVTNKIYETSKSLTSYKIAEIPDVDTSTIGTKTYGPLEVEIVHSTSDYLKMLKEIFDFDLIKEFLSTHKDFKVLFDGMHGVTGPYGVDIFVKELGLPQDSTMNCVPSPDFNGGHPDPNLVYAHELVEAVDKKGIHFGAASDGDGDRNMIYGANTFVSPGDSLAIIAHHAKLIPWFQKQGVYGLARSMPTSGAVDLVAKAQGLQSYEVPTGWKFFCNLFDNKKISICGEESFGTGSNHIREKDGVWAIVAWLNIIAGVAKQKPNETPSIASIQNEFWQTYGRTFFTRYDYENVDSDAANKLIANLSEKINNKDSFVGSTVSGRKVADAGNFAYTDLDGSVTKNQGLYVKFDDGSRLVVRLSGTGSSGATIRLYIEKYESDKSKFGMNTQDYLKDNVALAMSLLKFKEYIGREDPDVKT
Description: As previously described, two speculated mechanisms, perturbing substrate binding or phosphoryl transfer, have been proposed based on the complex structure of CaPGM-ISFP1. […] As such, the inhibitory mechanism is likely to be a consequence of slowing the rate of phosphoryl transfer.
as §1
(§3) Figure S11: Representative enzyme activity assays for PGMs. Error bars represent standard deviation of three determinations. Panel A and B show the time course of PGMs and PGM mutants in which sugar recognition glutamates are mutated to glutamine. […] Values in parentheses indicate the time at which DTT (1 mM) was added.

CaPGM = target: T4, CaPGM (Candida albicans, UniProt A0A1D8PSA9); assay: G6PDH coupled assay for PGM, WT CaPGM; type: biochemical; details: 5 nM enzyme, no preincubation
T4 sequence (A0A1D8PSA9 1-560): T1 sequence (A0A1D8PSA9 1-560 C359S)
Description: as §1

AfPGM [3] = target: T3, AfPGM; assay: Covalent modification, intact protein mass spectrometry, AfPGM; type: binding; details: AfPGM:ISFP1 1:20; one adduct per protein molecule; reversed by DTT
Description: as §2

A. fumigatus = assay: Growth inhibition (MIC) of A. fumigatus; type: cell-based; details: Aspergillus fumigatus; preliminary experiments
Description: Figure S12: Limited correlation between minimal inhibitory concentrations (MIC) and IC50 values of isothiazolone derivatives against AfPGM. […] The R^2 value of linear correlation is 0.15.

AfPGMC353V = target: T5, AfPGMC353V (Aspergillus fumigatus, UniProt Q4WY53, C353V); assay: G6PDH coupled assay for PGM, AfPGM C353V mutant; type: biochemical; details: 5 nM enzyme, no preincubation
T5 construct: Full length AfPGM; 6His-GST (N, cleaved yes); made in house; host or cells: E. coli BL21 (DE3) pLysS
T5 sequence (Q4WY53 whole entry C353V): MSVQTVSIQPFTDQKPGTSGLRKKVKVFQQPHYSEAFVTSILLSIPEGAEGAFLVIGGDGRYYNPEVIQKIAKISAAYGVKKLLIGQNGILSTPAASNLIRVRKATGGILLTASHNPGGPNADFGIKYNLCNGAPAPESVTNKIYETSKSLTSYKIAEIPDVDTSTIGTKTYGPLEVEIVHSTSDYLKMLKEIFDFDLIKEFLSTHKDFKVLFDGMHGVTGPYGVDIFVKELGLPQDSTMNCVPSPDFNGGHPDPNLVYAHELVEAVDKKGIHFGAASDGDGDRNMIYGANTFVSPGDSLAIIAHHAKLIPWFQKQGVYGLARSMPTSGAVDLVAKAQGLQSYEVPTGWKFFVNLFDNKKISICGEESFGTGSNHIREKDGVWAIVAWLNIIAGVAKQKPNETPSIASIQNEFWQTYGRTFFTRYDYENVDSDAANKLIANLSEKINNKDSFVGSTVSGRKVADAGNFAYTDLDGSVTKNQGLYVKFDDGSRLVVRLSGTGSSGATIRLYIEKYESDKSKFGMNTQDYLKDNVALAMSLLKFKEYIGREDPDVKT
Description: as §1

AfPGM [4] = target: T3, AfPGM; assay: Biolayer interferometry fragment binding; details: 0 to 500 µM
Description: Amino groups of lysine side chains in PGM were biotinylated (EZ-Link NHSPEG4-Biotin) with one-to-one stoichiometry (one adduct per protein molecule). Biotinylated protein molecules were loaded on streptavidin-immobilized sensors (Super Streptavidin Biosensor). BLI was carried out using an Octet Red 384 instrument (ForteBio). Screening cycles included the baseline phase (protein was incubated for 60 s in screening buffer [25 mM Hepes–NaOH (pH 7.5), 150 mM NaCl, 2% DMSO (v/v]), the association phase (protein was incubated for 60 s in wells containing 200 μM fragment compounds dissolved in the screening buffer), and the dissociation phase (protein was incubated for 60 s in the screening buffer without any fragment compounds). Sensors blocked by biocytin were utilized as a control. Fragment compounds were purchased from Maybridge (1000 fragment compounds). Fragment compounds whose signal values were higher than the median value plus three times robust SD were considered as hits. The confirmation of hits was carried out using dose-response assays. Briefly, a BLI assay was carried out with each hit in a series of concentrations (from 0 to 500 μM). Running cycles included the baseline phase (60 s in the screening buffer), the association phase (120 s in the screening buffer with fragment compounds), and the dissociation phase (120 s in the screening buffer without compounds). […]

AfPGM [5] = target: T3, AfPGM; assay: biochemical
Description: as §1, §3

HsPGM = target: T6, HsPGM (Homo sapiens, UniProt P36871); assay: G6PDH coupled assay for PGM, HsPGM; type: biochemical
T6 construct: Full length HsPGM; 6His-GST (N, cleaved yes); made in house; host or cells: E. coli BL21 (DE3) pLysS (same protocol as AfPGM)
T6 sequence (P36871 1-562): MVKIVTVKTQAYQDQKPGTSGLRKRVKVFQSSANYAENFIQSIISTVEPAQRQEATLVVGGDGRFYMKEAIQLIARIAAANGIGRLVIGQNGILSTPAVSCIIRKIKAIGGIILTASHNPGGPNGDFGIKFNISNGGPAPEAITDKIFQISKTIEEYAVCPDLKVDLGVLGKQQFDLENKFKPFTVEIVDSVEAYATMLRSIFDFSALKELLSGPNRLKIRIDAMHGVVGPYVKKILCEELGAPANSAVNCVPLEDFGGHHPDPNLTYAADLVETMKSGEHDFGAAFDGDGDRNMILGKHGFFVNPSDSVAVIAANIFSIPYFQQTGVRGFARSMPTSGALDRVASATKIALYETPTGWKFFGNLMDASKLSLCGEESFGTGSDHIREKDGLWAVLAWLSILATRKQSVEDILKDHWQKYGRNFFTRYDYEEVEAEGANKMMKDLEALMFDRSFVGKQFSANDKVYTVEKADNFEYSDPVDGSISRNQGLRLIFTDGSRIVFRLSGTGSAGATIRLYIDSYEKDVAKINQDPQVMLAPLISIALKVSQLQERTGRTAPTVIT
Description: as §1, §3

AfPGMC353∗ [6] = target: T2, AfPGMC353∗; assay: G6PDH coupled assay for PGM, AfPGMC353∗ variant (C353 the sole cysteine); type: biochemical; details: IC50 AfPGMC353, AfPGMC353∗ (all other cysteines mutated to serine) 5 nM, no preincubation
Description: as §1

[7] = 50 µM ISFP1 preincubated 15 min with 5 nM enzyme, DTT 1 mM (Fig. S11G)

Compound: O=c1ccsn1-c1cccc(Cl)c1F [ISFP1]
- IC50 (CaPGMC359S): > 400 µM
- IC50 CaPGM C359S mutant (CaPGMC359S): No inhibition
- Increase in protein mass after incubation with compound (AfPGMC353∗ [1]): 232 Da
- Decrease of AfPGM kcat (AfPGM [2]; 20 μM ISFP1): 10 fold
- Change of AfPGM Km (AfPGM [2]; in the presence of ISFP1): remains at the same level
- IC50 (CaPGM): 5 µM
- Increase in protein mass after incubation with compound (AfPGM [3]): 232 Da
- MIC (A. fumigatus): 10 µg/mL (≈ 43.5 µM)
- Inhibition of AfPGM C353V mutant (AfPGMC353V): does not inhibit; also recorded: not inhibited
- Binding to AfPGM by BLI (AfPGM [4]): bound to AfPGM in a concentration-dependent manner
- Rescue of AfPGM activity by DTT after inhibition (AfPGM [5]; [7]): rescued by the addition of DTT
- IC50 (AfPGM [5]; WT AfPGM 5 nM, no preincubation, 500 μM Glc-1P): 2 µM
- Rescue of HsPGM activity by DTT after inhibition (HsPGM; [7]): could not be rescued by DTT treatment
- IC50 (HsPGM; IC50 HsPGM, HsPGM 5 nM, no preincubation, > values: highest concentration at which the compound can solubilize): 80 ± 2 µM
- IC50 (HsPGM; enzyme preincubated with compound for 15 min (Fig. S11E, F), read-out: IC50 HsPGM after preincubation): 7.5 µM
- IC50 (AfPGMC353∗ [6]): 3 µM

— PMC9168620, “Genetic validation of Aspergillus fumigatus phosphoglucomutase as a viable therapeutic target in invasive aspergillosis” (The Journal of Biological Chemistry, 2022)
